The values that follow come from US20080206744A1, “Functional Genomics and Gene Trapping in Haploid or Hypodiploid Cells” (priority 2004, published 2008).

In the assay the test system is palmitoylation of GAP43:GFP in MDCK cells. Briefly: Localization of the palmitoylation reporter GAP43:GFP at the plasma membrane, by microscopy and HTM algorithm. The class given is cell-based. As to conditions: for effect on palmitoylation / PM localization of GAP43:GFP: MDCK cells transiently transfected with GAP43:GFP, incubation in 100 μM 2BP. An excerpt: FIGS. 2A-2D provide characterization of the reporter of S-palmitoylation. […] Cells in FIGS. 2B, 2C and 2D are representative of many having the same morphology.
FIGS. 5A-5D illustrate the simple case of quantifying whether or not GAP43:GFP is on the PM or in the cytoplasm using the HTM algorithm. In this analysis, MDCK cells (the same images as presented in FIGS. 2A-2D), transiently transfected with GFP alone are presented in FIG. 5A; transiently transfected with GAP43:GFP are presented in FIG. 5B; and transiently transfected with GAP43:GFP in the presence of 100 μM 2BP are presented in FIG. 5C.
FIG. 6 presents a quantitative analysis of the time course of translocation of GAP43:GFP from the plasma membrane in response to 100 μM 2BP: residence half life of palmitoylation. MDCK cells stably expressing GAP43:GFP were exposed to 100 μM 2BP for 6 hours. During this time, the same field of view of cells was imaged repeatedly in two channels Hoechst/nucleus (see FIG. 6A) and GFP/PM (see FIG. 6B) on the EIDAQ100 (the three images: 6A, 6B and 6C are at time 0). The PM mask (green lines) defined by the program is shown in FIG. 6C; the nucleus is delimited by red lines. By determining the average fluorescence intensity of the area defined by the PM mask (see FIG. 6D), PM labeling was reduced by 80% from the maximum (or starting) density during the 6 hour period.
This algorithm is able to make a simple binary decision of whether GAP43:GFP is on the PM or in the cytoplasm (see FIG. 5) as well as fine incremental determinations (see FIG. 6) of the quantity of fluorescence on the PM, thereby extending the capability beyond what is necessary to score the primary screen for trapped genes. Two important questions are answered here. Data in FIGS. 5A-5D illustrate that the algorithm is sufficient to ensure success in a screen to find genes critical in the pathway for palmitoylation of the reporter in an ICR-2A reporter cell line.

Each structure is given as a SMILES string.

As to `CCCCCCCCCCCCCCC(Br)C(=O)O` (stereo not drawn) [2BP, 2-bromopalmitate], the “effect on palmitoylation / PM localization of GAP43:GFP” value was “localization to the PM has been inhibited”. Moreover, the “reduction of PM labeling (average fluorescence intensity of the area defined by the PM mask) from the maximum (starting) density” value (MDCK cells stably expressing GAP43:GFP, 100 μM 2BP, 6 hour period, EIDAQ100 imaging) came to 80%. Further, the “effect on palmitoylation / PM localization of GAP43:GFP” value (listed as 2-bromopalmitate) was “palmitoylation is inhibited”.
